Results published in patent US9302967B2, “Substituted cathechols as inhibitors of IL-4 and IL-5 for the treatment of bronchial asthma” (Council of Scientific & Industrial Research, priority 2011, dated 2016).

Experiments:
[1] = 14 d acute oral toxicity: immunotoxicity (EPA guideline 1998); format: in vivo, mice; conditions: for Bone marrow cell viability % / Lymph node lymphocyte viability % (pooled) / Splenocyte viability %: 14 d acute
Description: 14 d acute oral toxicity of compound 1 of formula I was performed. […]
Immunotoxicity in mice was performed in accordance to EPA guideline (1998). […] Humoral immunity was measured in terms of HA titer and plaque forming cell assay. […] Cell mediated immunity was measured in terms of % increase in paw volume in mice sensitized with SRBC.

In the case of `C=CCc1ccc(O)c(O)c1` [Compound 1, 4-allyl-benzene-1,2-diol], the “Bone marrow cell viability %” value ([1]; 12 mg/kg bw) was >98%, the “Lymph node lymphocyte viability % (pooled)” value ([1]; 12 mg/kg bw) was >98% and the Splenocyte viability % ([1]; 12 mg/kg bw) was 97.69 ± 0.96%. For the same molecule, the “Bone marrow cell viability %” value ([1]; 23 mg/kg bw) was >98%, the “Lymph node lymphocyte viability % (pooled)” value ([1]; 23 mg/kg bw) was >98% and the Splenocyte viability % ([1]; 23 mg/kg bw) was 97.64 ± 0.73%. The “Bone marrow cell viability %” value ([1]; 47 mg/kg bw) was >98%, the “Lymph node lymphocyte viability % (pooled)” value ([1]; 47 mg/kg bw) was >98% and the Splenocyte viability % ([1]; 47 mg/kg bw) was 98.25 ± 0.92%. The “DTH response (cell mediated immunity)” value ([1]; mouse, in vivo) was “insignificant changes in the DTH response”, the “viability of bone marrow cells, splenocyte and lymph node lymphocyte (trypan blue)” value ([1]; mouse, in vivo) was “No significant changes” and the “HA tire (reciprocal of the last dilution showing positive reaction)” value (shortened to “HA tire”) ([1]; mouse, in vivo, 12 mg/kg) was 2560. The PFC ([1]; mouse, in vivo, 12 mg/kg) was 10333 ± 3008 per 10^6lymphocytes, the “PFC and HA titre against SRBC antigen” value ([1]; mouse, in vivo, 21 mg/kg) was “did not show any significant change” and the “DTH response (%)” value ([1]; mouse, in vivo, 23 mg/kg) was 19.24 ± 10.5%. The “HA tire” value ([1]; mouse, in vivo, 23 mg/kg) was 2560, the PFC ([1]; mouse, in vivo, 23 mg/kg) was 11633 ± 3636 per 10^6lymphocytes and the “DTH response (%)” value ([1]; mouse, in vivo, 47 mg/kg) was 17.75 ± 9.8%. The “HA tire” value ([1]; mouse, in vivo, 47 mg/kg) was 1280, the PFC ([1]; mouse, in vivo, 47 mg/kg) was 2800 ± 1288 per 10^6lymphocytes and the “in vivo acute oral LD50” value (In vivo acute oral LD50) was 268 mg/kg bw.
